Results taken from patent publication US4820694A, “Modifications of 3-O-demethylmycinose in macrocin and lactenocin” (priority 1986, dated 1989).
Converted amounts (≈) assume the structure as drawn. Read-outs that look alike come from different tables or passages of the source.

Key:
[1] = system: Haemophilus influenzae 76; test: standard agar-dilution MIC assay; assay type: cell-based; conditions: Haemophilus influenzae, 76
Method: (§1) The MIC's in Table III were determined by standard agar-dilution assays. The MIC's in Table IV were obtained using conventional brothdilution microtiter tests.

[2] = system: Haemophilus influenzae C.L.; test: standard agar-dilution MIC assay; assay type: cell-based; conditions: Haemophilus influenzae
Method: as §1

[3] = system: Streptococcus Group D 9960; test: standard agar-dilution MIC assay; assay type: cell-based; conditions: GROUPD9960, read-out: MIC
Method: as §1

[4] = system: Staphylococcus aureus X1.1; test: standard agar-dilution MIC assay; assay type: cell-based; conditions: Staphylococcus aureus, X1.1
Method: as §1

[5] = system: Staphylococcus aureus X400; test: standard agar-dilution MIC assay; assay type: cell-based; conditions: Staphylococcus aureus, X400
Method: as §1

[6] = system: Pseudomonas aeruginosa X239; test: standard agar-dilution MIC assay; assay type: cell-based; conditions: Pseudomonas aeruginosa, X239
Method: as §1

Escherichia coli EC14 = test: standard agar-dilution MIC assay; assay type: cell-based
Method: as §1

[7] = system: Streptococcus pyogenes C203; test: standard agar-dilution MIC assay; assay type: cell-based; conditions: Streptococcus pyogenes, C203
Method: as §1

[8] = system: Staphylococcus epidermidis EPI1; test: standard agar-dilution MIC assay; assay type: cell-based; conditions: Staphylococcus epidermidis, EPI1
Method: as §1

[9] = system: Streptococcus Group D X66; test: standard agar-dilution MIC assay; assay type: cell-based; conditions: read-out: MIC
Method: as §1

[10] = system: Staphylococcus aureus V41; test: standard agar-dilution MIC assay; assay type: cell-based; conditions: Staphylococcus aureus, V41
Method: as §1

[11] = system: Klebsiella pneumoniae X68; test: standard agar-dilution MIC assay; assay type: cell-based; conditions: Klebsiella pneumoniae, X68
Method: as §1

[12] = system: Streptococcus pneumoniae Park I; test: microbe, parasite or virus in culture; assay type: cell-based; conditions: Streptococcus pneumoniae
Method: as §1

[13] = system: Staphylococcus aureus S13E; test: microbe, parasite or virus in culture; assay type: cell-based; conditions: Staphylococcus aureus, S13E
Method: as §1

[14] = system: Pasteurella multocida 68C; test: broth-dilution microtiter MIC test; assay type: cell-based; conditions: Pasteurella multocida, 68C
Method: as §1

Streptococcus sp. 19F = test: broth-dilution microtiter MIC test; assay type: cell-based; conditions: Streptococcus, SP.19F
Method: as §1

[15] = system: Pasteurella hemolytica 41D; test: broth-dilution microtiter MIC test; assay type: cell-based; conditions: Pasteurella, 41D
Method: as §1

Mycoplasma synoviae 40A = test: broth-dilution microtiter MIC test; assay type: cell-based; conditions: Mycoplasmopsis synoviae, 40A
Method: as §1

[16] = system: Staphylococcus aureus 19C; test: broth-dilution microtiter MIC test; assay type: cell-based; conditions: Staphylococcus aureus, 19C
Method: as §1

[17] = system: Bordetella bronchiseptica; test: broth-dilution microtiter MIC test; assay type: cell-based; conditions: Bordetella bronchiseptica
Method: as §1

[18] = system: Mycoplasma gallisepticum 29C; test: broth-dilution microtiter MIC test; assay type: cell-based; conditions: Mycoplasmoides gallisepticum, 29C
Method: as §1

[19] = system: Mycoplasma gallisepticum 15E; test: broth-dilution microtiter MIC test; assay type: cell-based; conditions: Mycoplasmoides gallisepticum, 15E
Method: as §1

[20] = system: Pasteurella hemolytica 22C; test: broth-dilution microtiter MIC test; assay type: cell-based; conditions: Pasteurella, 22C
Method: as §1

[21] = system: Pasteurella hemolytica 23C; test: broth-dilution microtiter MIC test; assay type: cell-based; conditions: Pasteurella, 23C
Method: as §1

[22] = system: Mycoplasma gallisepticum 36H; test: broth-dilution microtiter MIC test; assay type: cell-based; conditions: Mycoplasmoides gallisepticum, 36H
Method: as §1

[23] = system: Pasteurella multocida 17E; test: broth-dilution microtiter MIC test; assay type: cell-based; conditions: Pasteurella multocida, 17E
Method: as §1

Mycoplasma hyorhinis 29E = test: broth-dilution microtiter MIC test; assay type: cell-based; conditions: Mycoplasma, 29E
Method: as §1

[24] = system: Pasteurella multocida 40G; test: broth-dilution microtiter MIC test; assay type: cell-based; conditions: Pasteurella multocida, 40G
Method: as §1

[25] = system: Pasteurella multocida 60A; test: broth-dilution microtiter MIC test; assay type: cell-based; conditions: Pasteurella multocida, 60A
Method: as §1

[26] = system: Pasteurella multocida 22A; test: broth-dilution microtiter MIC test; assay type: cell-based; conditions: Pasteurella multocida, 22A
Method: as §1

[27] = system: Streptococcus pyogenes C203; test: protection of mice experimentally infected with S. pyogenes C203; assay type: in vivo
Method: The formula 1 compounds have shown in vivo antimicrobial activity against experimentally-induced infections in laboratory animals. When two doses of test compound were administered to mice experimentally infected with S. pyrogenes C203, the activity observed was measured as an ED50 value [effective dose in mg/kg to protect 50% of the test animals: see Warren Wick, et al., J. Bacteriol. 81, 233-235 (1961)].
^a mg/kg × 2; doses given 1 and 4 hours postinfection

[28] = broth-dilution microtiter, read-out: MIC

SMILES | MIC [1] [µg/mL] | MIC [2] [µg/mL] | MIC [3] [µg/mL] | MIC [4] [µg/mL] | MIC [5] [µg/mL] | MIC [7] [µg/mL] | MIC [8] [µg/mL] | MIC [9] [µg/mL] | MIC [10] [µg/mL] | MIC [12] [µg/mL] | MIC [13] [µg/mL] | MIC [14] [µg/mL] | MIC (Streptococcus sp. 19F) [µg/mL] | MIC [15] [µg/mL] | MIC (Mycoplasma synoviae 40A) [µg/mL] | MIC [16] [µg/mL] | MIC [18] [µg/mL] | MIC [19] [µg/mL] | MIC [20] [µg/mL] | MIC [21] [µg/mL] | further results
CCC1OC(=O)CC(O)C(C)C(OC2OC(C)C(O)C(N(C)C)C2OC(C)=O)C(CC=O)CC(C)C(=O)C=CC(C)=CC1COC1OC(C)C(OC(=O)CC(C)C)C(O)C1OC (stereo not shown) [Compound 25, 2'-O-Acetyl-4"-O-isovaleryl-lactenocin] | 16 (≈ 18.1 µM) | 32 (≈ 36.2 µM) | 2 (≈ 2.26 µM) | 2 (≈ 2.26 µM) | 2 (≈ 2.26 µM) | 2 (≈ 2.26 µM) | 2 (≈ 2.26 µM) | 2 (≈ 2.26 µM) | 2 (≈ 2.26 µM) | 0.5 (≈ 0.566 µM) | 2 (≈ 2.26 µM) | 25 (≈ 28.3 µM) | 1.56 (≈ 1.76 µM) | 25 (≈ 28.3 µM) | 3.12 (≈ 3.53 µM) | 6.25 (≈ 7.07 µM) | 0.39 (≈ 0.441 µM) | 50 (≈ 56.6 µM) | 50 (≈ 56.6 µM) | 25 (≈ 28.3 µM) | MIC ([6]; agar-dilution, read-out: MIC): > 128 µg/mL; MIC (Escherichia coli EC14; agar-dilution, read-out: MIC): > 128 µg/mL; MIC ([11]; agar-dilution, read-out: MIC): > 128 µg/mL; MIC [17, 28]: > 50 µg/mL; MIC [22]: 25 µg/mL (≈ 28.3 µM); MIC [23]: 25 µg/mL (≈ 28.3 µM); MIC (Mycoplasma hyorhinis 29E): 1.56 µg/mL (≈ 1.76 µM); MIC [24]: 25 µg/mL (≈ 28.3 µM); MIC [25]: 25 µg/mL (≈ 28.3 µM); MIC [26]: 25 µg/mL (≈ 28.3 µM)
CCC1OC(=O)CC(O)C(C)C(OC2OC(C)C(O)C(N(C)C)C2O)C(CC=O)CC(C)C(=O)C=CC(C)=CC1COC1OC(C)C(OC(=O)CC(C)C)C(O)C1OC (stereo not shown) [Compound 26, 4"-O-Isovaleryl-lactenocin] | 8 (≈ 9.5 µM) | 8 (≈ 9.5 µM) | 1 (≈ 1.19 µM) | 1 (≈ 1.19 µM) | 2 (≈ 2.38 µM) | 0.5 (≈ 0.594 µM) | 1 (≈ 1.19 µM) | 1 (≈ 1.19 µM) | 1 (≈ 1.19 µM) | 0.25 (≈ 0.297 µM) | 1 (≈ 1.19 µM) | 12.5 (≈ 14.8 µM) | 1.56 (≈ 1.85 µM) | 50 (≈ 59.4 µM) | 3.12 (≈ 3.71 µM) | 3.12 (≈ 3.71 µM) | 1.56 (≈ 1.85 µM) | 50 (≈ 59.4 µM) | 50 (≈ 59.4 µM) | 25 (≈ 29.7 µM) | MIC ([6]; agar-dilution, read-out: MIC): > 128 µg/mL; MIC (Escherichia coli EC14; agar-dilution, read-out: MIC): > 128 µg/mL; MIC ([11]; agar-dilution, read-out: MIC): > 128 µg/mL; MIC [17, 28]: > 50 µg/mL; MIC [22]: 50 µg/mL (≈ 59.4 µM); MIC [23]: 25 µg/mL (≈ 29.7 µM); MIC (Mycoplasma hyorhinis 29E): 1.56 µg/mL (≈ 1.85 µM); MIC [24]: 25 µg/mL (≈ 29.7 µM); MIC [25]: 25 µg/mL (≈ 29.7 µM); MIC [26]: 25 µg/mL (≈ 29.7 µM); ED50 ([27]; C203, Oral, mice, mg/kg × 2, doses given 1 and 4 hours postinfection, read-out: ED50): > 25 mg/kg; ED50 ([27]; C203, sc, Subcutaneous, mice, mg/kg × 2, doses given 1 and 4 hours postinfection, read-out: ED50): 5.37 mg/kg
CCC1OC(=O)CC(O)C(C)C(OC2OC(C)C(OC3CC(C)(O)C(O)C(C)O3)C(N(C)C)C2O)C(CC=O)CC(C)C(=O)C=CC(C)=CC1COC1OC(C)C(OC(=O)Cc2ccccc2)C(O)C1OC (stereo not shown) [Compound 10, 4'"-O-Phenylacetyl-macrocin] | 16 (≈ 15.7 µM) | 32 (≈ 31.4 µM) | 1 (≈ 0.98 µM) | 1 (≈ 0.98 µM) | 2 (≈ 1.96 µM) | 0.5 (≈ 0.49 µM) | 1 (≈ 0.98 µM) | 1 (≈ 0.98 µM) | 1 (≈ 0.98 µM) | 0.25 (≈ 0.245 µM) | 1 (≈ 0.98 µM) | 50 (≈ 49 µM) | 0.78 (≈ 0.765 µM) | > 50 | 1.56 (≈ 1.53 µM) | 1.56 (≈ 1.53 µM) | 0.39 (≈ 0.382 µM) | 12.5 (≈ 12.3 µM) | > 50 | > 50 | MIC [6]: > 128 µg/mL; MIC (Escherichia coli EC14): > 128 µg/mL; MIC [11]: > 128 µg/mL; MIC [17]: > 50 µg/mL; MIC [22]: 12.5 µg/mL (≈ 12.3 µM); MIC [23]: 50 µg/mL (≈ 49 µM); MIC (Mycoplasma hyorhinis 29E): 3.12 µg/mL (≈ 3.06 µM); MIC [24]: > 50 µg/mL; MIC [25]: > 50 µg/mL; MIC [26]: > 50 µg/mL; ED50 ([27]; C203, po): 38.8 mg/kg; ED50 ([27]; C203, sc): 1.9 mg/kg
